Test results: PubChem BioAssay (NCI)
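Following 48 hours of exposure in 96-well plates, responses at five concentrations were used to interpolate endpoints linearly. TGI is the concentration that stops growth completely.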

Legend:
Experiment in all cases: inhibition of tumour cell growth, NCI panel, 48 h
SNB-78 CNS = system: SNB-78 CNS
SK-MEL-28 melanoma = system: SK-MEL-28 melanoma
MOLT-4 leukemia = system: MOLT-4 leukemia
UO-31 renal = system: UO-31 renal
CAKI-1 renal = system: CAKI-1 renal
HOP-18 NSCLC = system: HOP-18 NSCLC
SF-295 CNS = system: SF-295 CNS
NCI-H226 lung = system: NCI-H226 lung
SK-MEL-5 melanoma = system: SK-MEL-5 melanoma
HCT-15 colon = system: HCT-15 colon
A498 renal = system: A498 renal
KM12 colon = system: KM12 colon
RXF 393 renal = system: RXF 393 renal
DMS 114 small cell lung = system: DMS 114 small cell lung
LOX IMVI melanoma = system: LOX IMVI melanoma
K-562 leukemia = system: K-562 leukemia
HCT-116 colon = system: HCT-116 colon
NCI-H23 lung = system: NCI-H23 lung
OVCAR-4 ovarian = system: OVCAR-4 ovarian
SW-620 colon = system: SW-620 colon
EKVX NSCLC = system: EKVX NSCLC
SNB-75 CNS = system: SNB-75 CNS
DLD-1 colon = system: DLD-1 colon
HCC-2998 colon = system: HCC-2998 colon
HL-60(TB) leukemia = system: HL-60(TB) leukemia
DMS 273 small cell lung = system: DMS 273 small cell lung
TK-10 renal = system: TK-10 renal
OVCAR-3 ovarian = system: OVCAR-3 ovarian
786-0 renal = system: 786-0 renal
U251 CNS = system: U251 CNS
M19-MEL melanoma = system: M19-MEL melanoma
XF 498 CNS = system: XF 498 CNS
IGROV1 ovarian = system: IGROV1 ovarian
UACC-62 melanoma = system: UACC-62 melanoma
RPMI-8226 leukemia = system: RPMI-8226 leukemia
NCI-H460 lung = system: NCI-H460 lung
UACC-257 melanoma = system: UACC-257 melanoma
ACHN renal = system: ACHN renal
MALME-3M melanoma = system: MALME-3M melanoma
A549 NSCLC = system: A549 NSCLC
OVCAR-5 ovarian = system: OVCAR-5 ovarian
OVCAR-8 ovarian = system: OVCAR-8 ovarian
KM20L2 colon = system: KM20L2 colon
HOP-92 NSCLC = system: HOP-92 NSCLC
SNB-19 CNS = system: SNB-19 CNS
SF-539 CNS = system: SF-539 CNS
SN12C renal = system: SN12C renal
SF-268 CNS = system: SF-268 CNS
SK-MEL-2 melanoma = system: SK-MEL-2 melanoma
HT29 colon = system: HT29 colon
HOP-62 NSCLC = system: HOP-62 NSCLC
M14 melanoma = system: M14 melanoma
COLO 205 colon = system: COLO 205 colon
NCI-H522 lung = system: NCI-H522 lung
SR leukemia = system: SR leukemia
LXFL 529 NSCLC = system: LXFL 529 NSCLC
SK-OV-3 ovarian = system: SK-OV-3 ovarian
CCRF-CEM leukemia = system: CCRF-CEM leukemia

Compound: CCCc1nc(N)nc(C(=O)Nc2cccc(C(F)(F)F)c2)c1CC
- TGI (SNB-78 CNS): > 100 µM
- TGI (SK-MEL-28 melanoma): > 100 µM
- TGI (MOLT-4 leukemia): > 100 µM
- TGI (UO-31 renal): > 100 µM
- TGI (CAKI-1 renal): > 100 µM
- TGI (HOP-18 NSCLC): > 100 µM
- TGI (SF-295 CNS): > 100 µM
- TGI (NCI-H226 lung): > 100 µM
- TGI (SK-MEL-5 melanoma): > 100 µM
- TGI (HCT-15 colon): > 100 µM
- TGI (A498 renal): > 100 µM
- TGI (KM12 colon): > 100 µM
- TGI (RXF 393 renal): > 100 µM
- TGI (DMS 114 small cell lung): > 100 µM
- TGI (LOX IMVI melanoma): > 100 µM
- TGI (K-562 leukemia): > 100 µM
- TGI (HCT-116 colon): > 100 µM
- TGI (NCI-H23 lung): > 100 µM
- TGI (OVCAR-4 ovarian): > 100 µM
- TGI (SW-620 colon): > 100 µM
- TGI (EKVX NSCLC): > 100 µM
- TGI (SNB-75 CNS): > 100 µM
- TGI (DLD-1 colon): > 100 µM
- TGI (HCC-2998 colon): > 100 µM
- TGI (HL-60(TB) leukemia): > 100 µM
- TGI (DMS 273 small cell lung): > 100 µM
- TGI (TK-10 renal): > 100 µM
- TGI (OVCAR-3 ovarian): > 100 µM
- TGI (786-0 renal): > 100 µM
- TGI (U251 CNS): > 100 µM
- TGI (M19-MEL melanoma): > 100 µM
- TGI (XF 498 CNS): > 100 µM
- TGI (IGROV1 ovarian): > 100 µM
- TGI (UACC-62 melanoma): > 100 µM
- TGI (RPMI-8226 leukemia): > 100 µM
- TGI (NCI-H460 lung): > 100 µM
- TGI (UACC-257 melanoma): > 100 µM
- TGI (ACHN renal): > 100 µM
- TGI (MALME-3M melanoma): > 100 µM
- TGI (A549 NSCLC): > 100 µM
- TGI (OVCAR-5 ovarian): > 100 µM
- TGI (OVCAR-8 ovarian): > 100 µM
- TGI (KM20L2 colon): > 100 µM
- TGI (HOP-92 NSCLC): > 100 µM
- TGI (SNB-19 CNS): > 100 µM
- TGI (SF-539 CNS): > 100 µM
- TGI (SN12C renal): > 100 µM
- TGI (SF-268 CNS): > 100 µM
- TGI (SK-MEL-2 melanoma): > 100 µM
- TGI (HT29 colon): > 100 µM
- TGI (HOP-62 NSCLC): > 100 µM
- TGI (M14 melanoma): > 100 µM

Compound: O=C1C(Cl)C(c2cc(Br)cc(Br)c2O)N1n1cnc2ccccc2c1=O (stereo unspecified)
- TGI (SNB-78 CNS): > 100 µM
- TGI (SK-MEL-28 melanoma): 70.5 µM
- TGI (MOLT-4 leukemia): 30.1 µM
- TGI (UO-31 renal): 76.1 µM
- TGI (CAKI-1 renal): 88.3 µM
- TGI (HOP-18 NSCLC): 83.8 µM
- TGI (SF-295 CNS): 54.2 µM
- TGI (NCI-H226 lung): 61.8 µM
- TGI (SK-MEL-5 melanoma): 35.6 µM
- TGI (HCT-15 colon): > 100 µM
- TGI (KM12 colon): 92.5 µM
- TGI (RXF 393 renal): 63.7 µM
- TGI (LOX IMVI melanoma): 30.4 µM
- TGI (K-562 leukemia): 71.5 µM
- TGI (HCT-116 colon): 36.2 µM
- TGI (NCI-H23 lung): 86.3 µM
- TGI (OVCAR-4 ovarian): 43.1 µM
- TGI (SW-620 colon): > 100 µM
- TGI (COLO 205 colon): 93.2 µM
- TGI (EKVX NSCLC): 85.9 µM
- TGI (SNB-75 CNS): 85.6 µM
- TGI (DLD-1 colon): > 100 µM
- TGI (HCC-2998 colon): > 100 µM
- TGI (HL-60(TB) leukemia): 48 µM
- TGI (DMS 273 small cell lung): > 100 µM
- TGI (TK-10 renal): > 100 µM
- TGI (OVCAR-3 ovarian): 79.4 µM
- TGI (786-0 renal): > 100 µM
- TGI (U251 CNS): 31.8 µM
- TGI (M19-MEL melanoma): 62.2 µM
- TGI (XF 498 CNS): 61.2 µM
- TGI (IGROV1 ovarian): 70.7 µM
- TGI (UACC-62 melanoma): 49.3 µM
- TGI (RPMI-8226 leukemia): 37.4 µM
- TGI (NCI-H460 lung): > 100 µM
- TGI (NCI-H522 lung): 49.1 µM
- TGI (UACC-257 melanoma): 45.3 µM
- TGI (ACHN renal): > 100 µM
- TGI (MALME-3M melanoma): 62.9 µM
- TGI (SR leukemia): 35.1 µM
- TGI (A549 NSCLC): > 100 µM
- TGI (OVCAR-5 ovarian): 71.8 µM
- TGI (OVCAR-8 ovarian): 94.9 µM
- TGI (KM20L2 colon): > 100 µM
- TGI (SNB-19 CNS): 89.3 µM
- TGI (SN12C renal): 91.2 µM
- TGI (LXFL 529 NSCLC): > 100 µM
- TGI (SF-268 CNS): > 100 µM
- TGI (SK-MEL-2 melanoma): 46.7 µM
- TGI (HT29 colon): > 100 µM
- TGI (SK-OV-3 ovarian): 42.3 µM
- TGI (CCRF-CEM leukemia): 49.5 µM
- TGI (HOP-62 NSCLC): > 100 µM
- TGI (M14 melanoma): 42.2 µM
